This passage reports Ki and IC50 results from US20100286145A1, “ISOPHTHALAMIDE DERIVATIVES INHIBITING BETA-SECRETASE ACTIVITY” (CoMentis, Inc., priority 2007, published 2010).

The structures appear in SMILES notation. Like-named read-outs stand apart in the source and are kept apart here.

One assay has as its target memapsin 2 (Homo sapiens, UniProt P56817). In words: Inhibition of memapsin 2 beta-secretase activity (fluorogenic substrate FS-2). The class given is biochemical. The note with it: memapsin 2, pH 4, 37° C., read-out: M2Ki. Put shortly:
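Memapsin 2 pre-incubated 20 min with compound at pH 4, 37° C, then FS-2 substrate (MCA-SEVNLDAEFK-DNP, APP Swedish cleavage site) added. Rate of fluorescence increase compared with uninhibited controls, fitted to a tight-binding inhibition model.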

Another assay deals with T1, memapsin 1 (Homo sapiens, UniProt Q9Y5Z0).
T1 sequence (Q9Y5Z0 63-518): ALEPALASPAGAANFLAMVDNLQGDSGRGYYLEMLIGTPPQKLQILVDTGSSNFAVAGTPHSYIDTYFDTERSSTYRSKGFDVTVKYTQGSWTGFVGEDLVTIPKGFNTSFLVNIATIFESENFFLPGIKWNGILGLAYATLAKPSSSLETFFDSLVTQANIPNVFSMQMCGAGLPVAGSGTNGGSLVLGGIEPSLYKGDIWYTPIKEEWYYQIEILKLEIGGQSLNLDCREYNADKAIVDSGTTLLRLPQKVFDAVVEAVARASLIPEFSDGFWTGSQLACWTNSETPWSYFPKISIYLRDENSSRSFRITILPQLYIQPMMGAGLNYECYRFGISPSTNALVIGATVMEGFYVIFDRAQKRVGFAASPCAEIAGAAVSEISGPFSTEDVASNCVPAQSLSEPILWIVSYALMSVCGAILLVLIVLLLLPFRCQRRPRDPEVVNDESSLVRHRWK
In words: Inhibition of memapsin 1 beta-secretase activity (substrate peptide ELDLAVEFWHDR, MALDI-TOF). The class given is biochemical. The note with it: read-out: M1Ki.

Assay [1] relates to Aβ production in Chinese hamster ovary cells that over-express human APP695 with the London and Swedish mutations. In words: Cellular Aβ IC50 determination (Aβ40 sandwich ELISA). The class given is cell-based. The note with it: Cricetulus griseus. Put shortly:
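CHO cells overexpressing human APP695 with London and Swedish mutations, seeded at 10% confluency, treated with compounds up to about 4 μM final (0.4% DMSO). Secreted Aβ40 measured by sandwich ELISA relative to control and fitted to a 4-parameter IC50 model.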
A general note: An ELISA detects its analyte on a solid surface through an enzyme-linked reagent.

[2] abbreviates: cellular Aβ production, read-out: IC50.

memapsin 2, sequence (P56817 46-501): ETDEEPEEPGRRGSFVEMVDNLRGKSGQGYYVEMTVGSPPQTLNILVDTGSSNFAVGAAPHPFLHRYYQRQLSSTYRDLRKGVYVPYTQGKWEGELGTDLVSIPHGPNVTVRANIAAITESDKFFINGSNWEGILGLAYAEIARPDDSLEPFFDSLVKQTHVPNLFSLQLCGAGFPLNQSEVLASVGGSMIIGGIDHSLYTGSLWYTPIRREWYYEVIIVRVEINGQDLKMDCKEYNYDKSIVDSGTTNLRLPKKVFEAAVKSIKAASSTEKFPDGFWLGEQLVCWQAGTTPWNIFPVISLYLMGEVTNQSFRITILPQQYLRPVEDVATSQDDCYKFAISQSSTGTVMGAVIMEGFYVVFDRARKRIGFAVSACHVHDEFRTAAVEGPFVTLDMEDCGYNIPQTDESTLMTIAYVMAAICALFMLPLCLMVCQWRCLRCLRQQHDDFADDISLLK

`Cc1csc(CN(C)C(=O)c2cc(C(=O)N[C@@H](Cc3ccccc3)[C@H](O)CNCc3cncc(C(C)(C)F)c3)cc(N(C)C)c2)n1` [Compound 220, 5-(dimethylamino)-N1-((2S,3R)-4-((5-(2-fluoropropan-2-yl)pyridin-3-yl)methylamino)-3-hydroxy-1-phenylbutan-2-yl)-N3-methyl-N3-((4-methylthiazol-2-yl)methyl)isophthalamide]: the Ki at memapsin 2 (fluorogenic substrate FS-2) and on memapsin 1 was less than 0.3 µM throughout. Also, in assay [1] (setting [2]), the IC50 was less than 1 µM.

As to `Cc1csc(CN(C)C(=O)c2cc(C(=O)N[C@@H](Cc3ccccc3)[C@H](O)CNCc3cccc(C(F)(F)F)c3)cc(N(C)C)c2)n1` [Compound 254, 5-(dimethylamino)-N1-((2S,3R)-3-hydroxy-1-phenyl-4-(3-(trifluoromethyl)benzylamino)butan-2-yl)-N3-methyl-N3-((4-methylthiazol-2-yl)methyl)isophthalamide], at memapsin 2 (fluorogenic substrate FS-2), the Ki is less than 0.3 µM. In addition, the IC50 in assay [1] (setting [2]) was less than 1 µM.

Consider `Cc1csc(CN(C)C(=O)c2cccc(C(=O)N[C@@H](Cc3ccccc3)[C@H](O)CNCc3cccc(I)c3)c2)n1` [Compound 97, N1-((2S,3R)-3-hydroxy-4-(3-iodobenzylamino)-1-phenylbutan-2-yl)-N3-methyl-N3-((4-methylthiazol-2-yl)methyl)isophthalamide], for which, at memapsin 2 (20 minutes pre-incubation), the Ki is less than 0.3 µM. The IC50 in assay [1] (setting [2]) was less than 1 µM.

Consider `Cc1nc(CN(C)C(=O)c2cccc(C(=O)N[C@@H](Cc3ccccc3)[C@H](O)CNCc3cncc(C(C)C)c3)c2)no1` [Compound 240, N1-((2S,3R)-3-hydroxy-4-((5-isopropylpyridin-3-yl)methylamino)-1-phenylbutan-2-yl)-N3-methyl-N3-((5-methyl-1,2,4-oxadiazol-3-yl)methyl)isophthalamide], for which, on memapsin 2 (fluorogenic substrate FS-2), the Ki lay in the range of 0.301 to 0.5 µM. Also, the IC50 in assay [1] (setting [2]) was 1 to 5 µM.

As to `Cc1csc(CN(C)C(=O)c2cccc(C(=O)N[C@@H](Cc3ccccc3)[C@H](O)CNCc3ccncc3)c2)n1` [Compound 26, N1-((2S,3R)-3-hydroxy-1-phenyl-4-(pyridin-4-ylmethylamino)butan-2-yl)-N3-methyl-N3-((4-methylthiazol-2-yl)methyl)isophthalamide], the Ki on memapsin 2 (20 minutes pre-incubation) was greater than 0.501 µM. Besides, the IC50 in assay [1] (setting [2]) was greater than 5 µM.

With `COc1cccc(CNC[C@@H](O)[C@H](Cc2ccccc2)NC(=O)c2cc(C(=O)N[C@H](C)c3ccccc3)cc(-c3ncco3)c2)c1` [Compound 213, N1-((2S,3R)-3-hydroxy-4-(3-methoxybenzylamino)-1-phenylbutan-2-yl)-5-(oxazol-2-yl)-N3-((R)-1-phenylethyl)isophthalamide], the Ki on memapsin 2 (fluorogenic substrate FS-2) lay in the range of 0.301 to 0.5 µM. Besides, the IC50 in assay [1] (setting [2]) is less than 1 µM.

Take `Cc1noc(CN(C)C(=O)c2cccc(C(=O)N[C@@H](Cc3ccccc3)[C@H](O)CNCc3cncc(C(C)C)c3)c2)n1` [Compound 235, N1-((2S,3R)-3-hydroxy-4-((5-isopropylpyridin-3-yl)methylamino)-1-phenylbutan-2-yl)-N3-methyl-N3-((3-methyl-1,2,4-oxadiazol-5-yl)methyl)isophthalamide]: the Ki on memapsin 2 (fluorogenic substrate FS-2) was less than 0.3 µM. Besides, in assay [1] (setting [2]), the IC50 was less than 1 µM.

In the case of `COc1cccc(CNC[C@@H](O)[C@H](Cc2ccccc2)NC(=O)c2cc(C(=O)N(C)Cc3nc(C)cs3)cc(-c3ncco3)c2)c1` [Compound 85, N1-((2S,3R)-3-hydroxy-4-(3-methoxybenzylamino)-1-phenylbutan-2-yl)-N3-methyl-N3-((4-methylthiazol-2-yl)methyl)-5-(oxazol-2-yl)isophthalamide], the Ki at memapsin 2 (20 minutes pre-incubation) was less than 0.3 µM. For the same compound, the IC50 in assay [1] (setting [2]) was less than 1 µM.

In the case of `Cc1csc(CN(C)C(=O)c2cccc(C(=O)N[C@@H](Cc3ccccc3)[C@H](O)CNCc3cccc(C(C)(C)C)c3)c2)n1` [Compound 52, N1-((2S,3R)-4-(3-tert-butylbenzylamino)-3-hydroxy-1-phenylbutan-2-yl)-N3-methyl-N3-((4-methylthiazol-2-yl)methyl)isophthalamide], the Ki at memapsin 2 (20 minutes pre-incubation) is less than 0.3 µM. Besides, the half-maximal inhibitory concentration (IC50) in assay [1] (setting [2]) is less than 1 µM.

For `Cc1csc(CN(C)C(=O)c2cc(C(=O)N[C@@H](Cc3ccccc3)[C@H](O)CNCc3cncc(C(C)C)c3)cc(-c3cccc(Cl)c3)c2)n1` [Compound 272, 3′-chloro-N3-((2S,3R)-3-hydroxy-4-((5-isopropylpyridin-3-yl)methylamino)-1-phenylbutan-2-yl)-N5-methyl-N5-((4-methylthiazol-2-yl)methyl)biphenyl-3,5-dicarboxamide], at memapsin 2 (fluorogenic substrate FS-2), the Ki is less than 0.3 µM. For the same compound, in assay [1] (setting [2]), the IC50 was less than 1 µM.

Consider `C[C@@H](NC(=O)c1cc(C(=O)N[C@@H](Cc2ccccc2)[C@H](O)CNCc2cccc(C(C)(F)F)c2)cc(N(C)S(C)(=O)=O)c1)c1ccccc1` [Compound 144, N1-((2S,3R)-4-(3-(1,1-difluoroethyl)benzylamino)-3-hydroxy-1-phenylbutan-2-yl)-5-(N-methylmethylsulfonamido)-N3-((R)-1-phenylethyl)isophthalamide], for which, at memapsin 2 (20 minutes pre-incubation), the Ki is less than 0.3 µM. For the same compound, the 50% inhibitory concentration (IC50) in assay [1] (setting [2]) is less than 1 µM.

Turning to `Cc1csc(CN(C)C(=O)c2cccc(C(=O)N[C@@H](Cc3ccccc3)[C@H](O)CNCc3cncc(C(C)(F)F)c3)c2)n1` [Compound 217, N1-((2S,3R)-4-((5-(1,1-difluoroethyl)pyridin-3-yl)methylamino)-3-hydroxy-1-phenylbutan-2-yl)-N3-methyl-N3-((4-methylthiazol-2-yl)methyl)isophthalamide], the Ki on memapsin 2 (fluorogenic substrate FS-2) is less than 0.3 µM. The IC50 in assay [1] (setting [2]) was less than 1 µM.

With `CNC(=O)c1cc(CNC[C@@H](O)[C@H](Cc2ccccc2)NC(=O)c2cccc(C(=O)N(C)Cc3nc(C)cs3)c2)cc(OC)c1` [Compound 112, N1-((2S,3R)-3-hydroxy-4-(3-methoxy-5-(methylcarbamoyl)benzylamino)-1-phenylbutan-2-yl)-N3-methyl-N3-((4-methylthiazol-2-yl)methyl)isophthalamide], the Ki on memapsin 2 (20 minutes pre-incubation) was less than 0.3 µM. Further, the IC50 in assay [1] (setting [2]) was less than 1 µM.

Take `Cc1csc(CN(C)C(=O)c2cc(C(=O)N[C@@H](Cc3ccccc3)[C@H](O)CNCc3cc(OS(C)(=O)=O)cc(C(C)C)c3)cc(N(C)C)c2)n1` [Compound 178, 3-(((2R,3S)-3-(3-(dimethylamino)-5-(methyl((4-methylthiazol-2-yl)methyl)carbamoyl)benzamido)-2-hydroxy-4-phenylbutylamino)methyl)-5-isopropylphenyl methanesulfonate]: the Ki on memapsin 2 (20 minutes pre-incubation) was less than 0.3 µM. Further, in assay [1] (setting [2]), the IC50 was less than 1 µM.

For `COc1cccc(CNC[C@@H](O)[C@H](Cc2ccccc2)NC(=O)c2cc(C(=O)N(C)Cc3nc(C)cs3)cc(-c3ccccc3)c2)c1` [Compound 78, N3-((2S,3R)-3-hydroxy-4-(3-methoxybenzylamino)-1-phenylbutan-2-yl)-N5-methyl-N5-((4-methylthiazol-2-yl)methyl)biphenyl-3,5-dicarboxamide], the Ki on memapsin 2 (20 minutes pre-incubation) is less than 0.3 µM. The IC50 in assay [1] (setting [2]) was less than 1 µM.

On to `COc1cccc(CNC[C@@H](O)[C@H](Cc2ccccc2)NC(=O)c2cc(CN=[N+]=[N-])cc(C(=O)N(C)Cc3nc(C)cs3)c2)c1` [Compound 121, 5-(azidomethyl)-N1-((2S,3R)-3-hydroxy-4-(3-methoxybenzylamino)-1-phenylbutan-2-yl)-N3-methyl-N3-((4-methylthiazol-2-yl)methyl)isophthalamide], for which the Ki at memapsin 2 (20 minutes pre-incubation) is less than 0.3 µM. In assay [1] (setting [2]), the IC50 is less than 1 µM.

With `Cc1csc(CN(C)C(=O)c2cccc(C(=O)N[C@@H](Cc3ccccc3)[C@H](O)CNCc3cc(OC(=O)N(C)C)cc(C(C)C)c3)c2)n1` [Compound 198, 3-(((2R,3S)-2-hydroxy-3-(3-(methyl((4-methylthiazol-2-yl)methyl)carbamoyl)benzamido)-4-phenylbutylamino)methyl)-5-isopropylphenyl dimethylcarbamate], on memapsin 2 (20 minutes pre-incubation), the Ki was less than 0.3 µM. The compound further had an IC50 in assay [1] of less than 1 µM.

Turning to `Cc1csc(CN(C)C(=O)c2cccc(C(=O)N[C@@H](Cc3ccccc3)[C@H](O)CNCc3cc(-c4ccccc4)on3)c2)n1` [Compound 196, N1-((2S,3R)-3-hydroxy-1-phenyl-4-((5-phenylisoxazol-3-yl)methylamino)butan-2-yl)-N3-methyl-N3-((4-methylthiazol-2-yl)methyl)isophthalamide], the Ki on memapsin 2 (20 minutes pre-incubation) is less than 0.3 µM. In assay [1] (setting [2]), the IC50 is less than 1 µM.

Regarding `Cc1csc(CN(C)C(=O)c2cc(CO)cc(C(=O)N[C@@H](Cc3ccccc3)[C@H](O)CNCc3cncc(C(C)C)c3)c2)n1` [Compound 192, N1-((2S,3R)-3-hydroxy-4-((5-isopropylpyridin-3-yl)methylamino)-1-phenylbutan-2-yl)-5-(hydroxymethyl)-N3-methyl-N3-((4-methylthiazol-2-yl)methyl)isophthalamide], the Ki at memapsin 2 (20 minutes pre-incubation) was less than 0.3 µM. Besides, the IC50 in assay [1] (setting [2]) was less than 1 µM.

In general, IC50 refers to the point on the concentration scale where inhibition reaches its midpoint.
